The assay addresses Envelope glycoprotein gp160 (Human immunodeficiency virus 1, UniProt Q6QLK5). Description: inhibitors of HIV fusion peptide binding, primary screen, biochemical, uHTS, fluorescence dequenching (AID 1986).

We go through 1 compound from ChEMBL document CHEMBL1201862, “PubChem BioAssay data set” (2004).

Activity calls are given as the source filed them. No stated cut-off is given here; in the data, actives have a measured IC50 and inactives only a lower limit.

Chain of Envelope glycoprotein gp160 (Q6QLK5 whole entry, the tested form may be a part): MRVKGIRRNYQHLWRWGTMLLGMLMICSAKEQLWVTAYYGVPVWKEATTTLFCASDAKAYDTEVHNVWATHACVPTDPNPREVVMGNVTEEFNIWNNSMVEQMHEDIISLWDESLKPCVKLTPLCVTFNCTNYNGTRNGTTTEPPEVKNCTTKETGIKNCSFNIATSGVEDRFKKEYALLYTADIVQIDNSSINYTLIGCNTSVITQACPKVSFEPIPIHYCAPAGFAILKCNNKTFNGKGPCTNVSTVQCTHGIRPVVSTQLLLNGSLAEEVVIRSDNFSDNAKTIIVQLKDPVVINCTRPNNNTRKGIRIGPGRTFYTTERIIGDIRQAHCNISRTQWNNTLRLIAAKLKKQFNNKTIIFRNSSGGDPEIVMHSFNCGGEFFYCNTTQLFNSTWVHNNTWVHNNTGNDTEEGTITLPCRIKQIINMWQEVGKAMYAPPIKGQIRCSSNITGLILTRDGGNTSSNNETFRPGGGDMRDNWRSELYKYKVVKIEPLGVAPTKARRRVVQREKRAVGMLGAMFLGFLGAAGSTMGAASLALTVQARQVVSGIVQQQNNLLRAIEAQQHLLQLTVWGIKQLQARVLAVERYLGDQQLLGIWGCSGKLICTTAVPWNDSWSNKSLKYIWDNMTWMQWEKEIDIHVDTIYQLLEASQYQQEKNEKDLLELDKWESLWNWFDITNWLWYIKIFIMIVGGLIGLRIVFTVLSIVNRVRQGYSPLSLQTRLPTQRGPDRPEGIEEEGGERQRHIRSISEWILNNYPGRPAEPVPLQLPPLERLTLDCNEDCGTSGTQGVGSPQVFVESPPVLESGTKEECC

In general, IC50 refers to the concentration needed to halve the response being measured. As for `Oc1c(Br)cc(Br)c(/C=N/n2c(S)nnc2-c2ccccc2)c1Br`, the IC50 is 12 µM (active).
